Assay [1] relates to mice. The assay can be described thus: Tail-flick test in mice. It counts as in vivo, Male Charles River mice (Swiss Strain). To be noted: Mus musculus, sc, 0.5 h; s.c.; 30 min pretreatment; quantal protection (reaction time doubled); read-out: ANALGESIA MOUSE TAIL-FLICK ED50. As to the method:
B) Tail-flick test in mice
The methodology employed is based on that described by D'Amour and Smith, J. Pharmacol. Exp. Ther. 72, 74/1941.
Male Charles River mice (Swiss Strain), 22-34 g body weight were used. Animals were allowed food and water ad libitum and were randomized into groups of 10 prior to experimentation.
Test compounds were dissolved in either distilled water or distilled water plus 0.1M AMS and administered by the subcutaneous route in a final volume of 10 ml/Kg. Control animals received 10 ml/kg of the appropriate vehicle alone. Following a pretreatment period of 30 min., the mice were again placed under the heat source and the reaction tine re-determined.
Percentage quantal protection was determined as the number of mice in which the reaction time was doubled compared to pretreatment values, expressed as a percentage of the total number of mice in the group.

For assay [2], the system named is mice. Kind of assay: P-phenylquinone-induced abdominal writhing test in mice. To be noted: Mus musculus, sc, 20 min; s.c.; 20 min pretreatment; p-phenylquinone 2 mg/Kg i.p.; graded protection; read-out: ANALGESIA MOUSE WRITHING ED50. In kind it is in vivo, Male Charles River mice (Swiss Strain). As to the method: A) P-phenylquinone-induced abdominal writhing test in mice
The methodology employed is based on that described by Sigmund et al, Proc. Soc. Exptl. Biol. 95, 729/1957, modified by Milne and Twomey, Agents and Actions, 10, 31/1980.
Male Charles River mice (Swiss Strain), 25-36 g body weight, were used. Animals were allowed food and water ad libitum and were randomized into groups of 10 prior to experimentation. Test compounds were dissolved in either distilled water or distilled water plus 0.1M AMS, and administered by the subcutaneous route in a final volume of 10 ml/Kg. Control animals received 10 ml/Kg of the appropriate vehicle alone. Following a pretreatment period of 20 min., mice were injected intraperitoneally with p-phenylquinone, 2 mg/Kg at 37° C. in a final volume of […]. […] During this period the number of abdominal writhing responses per animal were recorded where writhing consists of an intermittent contraction of the abdomen associated with hind leg extension.
The degree of antinociceptive protection afforded by the test compound was determined as the mean number of writhing responses observed in the treated group (T) expressed as a percentage of the mean number of writhing responses in the control group (C) according to the following formula:
[1-(T/C]×100%=% graded protection

Structures can show the parent of a compound that is named as a salt.

As to `O=C(Cc1ccc(Cl)c(Cl)c1)N1CCc2sccc2C1CN1CC=CC1` (centres unmarked) [Example 7, 4-(3-pyrrolin-1-yl)methyl-5-(3,4-dichlorophenyl)acetyl-4,5,6,7-tetrahydrothieno[3,2-c]pyridine hydrochloride hemihydrate], the ED50 in assay [1] stood at 0.008 mg/kg; in assay [2], 0.002 mg/kg.
As for `CC1(C)CCCN(C(=O)Cc2ccc(C(F)(F)F)cc2)C1CN1CC=CC1` (centres unmarked) [Example 3, 1-(4-trifluoromethylphenyl)acetyl-2-(3-pyrrolin-1-yl)methyl-3,3-dimethyl piperidine hydrochloride], the ED50 in assay [1] was 0.015 mg/kg; in assay [2], 0.006 mg/kg.
On the same counts, the results for `CC1(C)CCCN(C(=O)Cc2ccc3c(c2)CCCC3)C1CN1CC=CC1` (centres unmarked) [Example 4, 1-(5,6,7,8-tetrahydronapht-2-yl)acetyl-2-(3-pyrrolin-1-yl) methyl-3,3-dimethyl piperidine hydrochloride] are 0.193 mg/kg and 0.025 mg/kg.
On the same counts, the results for `O=C1CCCc2cc(CC(=O)N3CCCC[C@H]3CN3CC=CC3)ccc21` [Example 9, (2S)-1-[1-oxo-3,4-dihydro-(2H)-napht-6-yl]acetyl-2-(3-pyrrolin-1-yl)methyl piperidine hydrochloride] are 0.316 mg/kg and 0.023 mg/kg.
For `O=C(Cc1ccc(Cl)c(Cl)c1)N1CCc2ccccc2C1CN1CC=CC1` (centres unmarked) [Example 5, 1-(3-pyrrolin-1-yl)methyl-2-(3,4-dichlorophenyl)acetyl-1,2,3,4-tetrahydroisoquinoline hydrochloride], in that order: 0.015 mg/kg and 0.005 mg/kg.
For `CC1(C)CN(C(=O)Cc2ccc(Cl)c(Cl)c2)C(CN2CC=CC2)c2ccccc21` (centres unmarked) [Example 6, 1-(3-pyrrolin-1-yl)methyl-2-(3,4-dichlorophenyl)acetyl-4,4-dimethyl-1,2,3,4-tetrahydroisoquinoline hydrochloride], the ED50 in assay [1] turned out to be 0.275 mg/kg; in assay [2], 0.047 mg/kg.
For `CC1(C)CCCN(C(=O)Cc2ccc3c(c2)CCCC3=O)C1CN1CC=CC1` (centres unmarked) [Example 10, 1-[1-oxo-3,4-dihydro-(2H)-napht-6-yl]acetyl-2-(3-pyrrolin-1-yl)methyl-3,3-dimethyl piperidine hydrochloride], in that order: 0.594 mg/kg and 0.053 mg/kg.
For `CC1(C)CN(C(=O)Cc2ccc(Cl)c(Cl)c2)C(CN2CC=CC2)c2ccsc21.Cl` (centres unmarked) [Example 8, 4-(3-pyrrolin-1-yl)methyl-5-(3,4-dichlorophenyl)acetyl-7,7-dimethyl-4,5,6,7-tetrahydrothieno[3,2-c]pyridine hydrochloride], in that order: 0.55 mg/kg and 0.04 mg/kg.
On the same counts, the results for `O=C(Cc1ccc(Cl)c(Cl)c1)N1CCCC[C@H]1CN1CC=CC1` [Example 1, (2S)-1-(3,4-dichlorophenyl)acetyl-2-(3-pyrrolin-1-yl)methyl piperidine hydrochloride] are 0.045 mg/kg and 0.005 mg/kg.
With `CC1(C)CCCN(C(=O)Cc2ccc(Cl)c(Cl)c2)C1CN1CC=CC1` (centres unmarked) [Example 2, 1-(3,4-dichlorophenyl)acetyl-2-(3-pyrrolin-1-yl)methyl-3,3-dimethyl piperidine hydrochloride], the ED50 in assay [1] was 0.021 mg/kg; in assay [2] it was 0.006 mg/kg.
